Source: PubChem BioAssay AID248 (DTP/NCI, 2004)
Values joined by “and” are separate entries in the source; they are usually repeats but may differ in a detail not shown here. Equal entries are not always repeated. Toxic doses and inconclusive results are not listed. No stated cut-off is given here; in the data, active means T/C of 150% or more; inactive means T/C below 125%.

System: L1210 leukemia ip in BDF1 mice, survival T/C
Assay: NCI In Vivo Anticancer Drug Screen. Data for tumor model L1210 Leukemia (intraperitoneal) in B6D2F1 (BDF1) mice
Settings: endpoint: mean survival time, higher = longer survival
Method in brief: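 Transplantable tumor model; survival measured in treated vs vehicle control mice. Value = treated/control.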

[1] = dose: 100.0 mg/kg/injection, schedule: Q01DX009 (ip), vehicle: Klucel (hydroxypropylcellulose) (HPC)
[2] = dose: 100.0 mg/kg/injection, schedule: Q04DX003 (ip), vehicle: Klucel (hydroxypropylcellulose) (HPC)
[3] = dose: 200.0 mg/kg/injection, schedule: Q04DX003 (ip), vehicle: Klucel (hydroxypropylcellulose) (HPC)
[4] = dose: 400.0 mg/kg/injection, schedule: Q04DX003 (ip), vehicle: Klucel (hydroxypropylcellulose) (HPC)
[5] = dose: 100.0 mg/kg/injection, schedule: Q01DX001 (ip), vehicle: carboxymethylcellulose (CMC)
[6] = dose: 100.0 mg/kg/injection, schedule: Q04DX003 (ip), vehicle: carboxymethylcellulose (CMC)
[7] = dose: 200.0 mg/kg/injection, schedule: Q01DX001 (ip), vehicle: carboxymethylcellulose (CMC)
[8] = dose: 200.0 mg/kg/injection, schedule: Q04DX003 (ip), vehicle: carboxymethylcellulose (CMC)
[9] = dose: 400.0 mg/kg/injection, schedule: Q01DX001 (ip), vehicle: carboxymethylcellulose (CMC)
[10] = dose: 400.0 mg/kg/injection, schedule: Q04DX003 (ip), vehicle: carboxymethylcellulose (CMC)
[11] = dose: 100.0 mg/kg/injection, schedule: Q01DX009 (ip), vehicle: saline
[12] = dose: 100.0 mg/kg/injection, schedule: Q04DX003 (ip), vehicle: saline
[13] = dose: 200.0 mg/kg/injection, schedule: Q04DX003 (ip), vehicle: saline
[14] = dose: 100.0 mg/kg/injection, schedule: Q01DX001 (ip), vehicle: saline with Tween-80
[15] = dose: 400.0 mg/kg/injection, schedule: Q01DX001 (ip), vehicle: saline with Tween-80
[16] = dose: 200.0 mg/kg/injection, schedule: Q01DX009 (ip), vehicle: saline
[17] = dose: 400.0 mg/kg/injection, schedule: Q01DX009 (ip), vehicle: saline
[18] = dose: 400.0 mg/kg/injection, schedule: Q04DX003 (ip), vehicle: saline
[19] = dose: 50.0 mg/kg/injection, schedule: Q01DX001 (ip), vehicle: saline
[20] = dose: 100.0 mg/kg/injection, schedule: Q01DX001 (ip), vehicle: saline
[21] = dose: 200.0 mg/kg/injection, schedule: Q01DX001 (ip), vehicle: saline
[22] = dose: 400.0 mg/kg/injection, schedule: Q01DX001 (ip), vehicle: saline

Measured: T/C

CC(=O)CC(C)=Nc1ccc(Cl)cc1
inactive: [1] 97 % of control | [2] 96 % of control | dose: 200.0 mg/kg/injection, schedule: Q01DX009 (ip), vehicle: Klucel (hydroxypropylcellulose) (HPC) 105 % of control | [3] 110 % of control | dose: 400.0 mg/kg/injection, schedule: Q01DX009 (ip), vehicle: Klucel (hydroxypropylcellulose) (HPC) 108 % of control | [4] 104 % of control

O=C(Nc1ccc(C(=O)O)cc1)Nc1cc(C(F)(F)F)ccc1Cl
inactive: [5] 93 % of control | dose: 100.0 mg/kg/injection, schedule: Q01DX009 (ip), vehicle: carboxymethylcellulose (CMC) 95 % of control and 110 % of control | dose: 100.0 mg/kg/injection, schedule: Q04DX002 (ip), vehicle: carboxymethylcellulose (CMC) 95 % of control and 97 % of control | [6] 94 % of control | [7] 93 % of control | dose: 200.0 mg/kg/injection, schedule: Q01DX009 (ip), vehicle: carboxymethylcellulose (CMC) 100 % of control and 90 % of control | dose: 200.0 mg/kg/injection, schedule: Q04DX002 (ip), vehicle: carboxymethylcellulose (CMC) 93 % of control and 97 % of control | [8] 97 % of control | [9] 93 % of control | dose: 400.0 mg/kg/injection, schedule: Q01DX009 (ip), vehicle: carboxymethylcellulose (CMC) 92 % of control | dose: 400.0 mg/kg/injection, schedule: Q04DX002 (ip), vehicle: carboxymethylcellulose (CMC) 96 % of control and 90 % of control | [10] 96 % of control

CC1(O)Cn2c(nc3nccnc32)S1 (centres undefined)
inactive: dose: 25.0 mg/kg/injection, schedule: Q01DX009 (ip), vehicle: saline 100 % of control | dose: 50.0 mg/kg/injection, schedule: Q01DX009 (ip), vehicle: saline 96 % of control | [11] 94 % of control | [12] 100 % of control | [13] 96 % of control

CCCOc1ccc(-c2nc(-c3ccc(N=Cc4ccc(N(CCOS(C)(=O)=O)CCOS(C)(=O)=O)cc4C)cc3)cs2)cc1
inactive: dose: 25.0 mg/kg/injection, schedule: Q01DX009 (ip), vehicle: Klucel (hydroxypropylcellulose) (HPC) 114 % of control | dose: 50.0 mg/kg/injection, schedule: Q01DX009 (ip), vehicle: Klucel (hydroxypropylcellulose) (HPC) 109 % of control | dose: 75.0 mg/kg/injection, schedule: Q01DX009 (ip), vehicle: Klucel (hydroxypropylcellulose) (HPC) 106 % of control | [1] 94 % of control

COC1CCC2C(C1)C(=O)CC1c3[nH]c4ccccc4c3CCN12 (centres undefined)
inactive: [14] 100 % of control | dose: 200.0 mg/kg/injection, schedule: Q01DX001 (ip), vehicle: saline with Tween-80 101 % of control | [15] 99 % of control

O=[N+]([O-])c1cc(Br)cc(Br)c1S(=O)(=O)O
inactive: [11] 105 % of control | [12] 103 % of control | [16] 97 % of control | [13] 110 % of control | [17] 108 % of control | [18] 108 % of control

Oc1cccc2ccc(N/N=C/c3ccnc4c(O)cccc34)nc12
inactive: [5] 93 % of control | [7] 96 % of control | [9] 91 % of control

CCC(C1=NC(C)(C)CO1)c1ccccc1Br (centres undefined)
inactive: [12] 97 % of control | [13] 98 % of control | [18] 88 % of control

CCCCCCCCCCCCCCOS(=O)(=O)c1ccc(C)cc1
inactive: [19] 102 % of control | [20] 102 % of control | [21] 96 % of control | [22] 100 % of control

CC1=CC(=C2C=C(C)C(=O)C(C)=C2)C=C(C)C1=O
inactive: [14] 87 % of control | dose: 100.0 mg/kg/injection, schedule: Q04DX003 (ip), vehicle: saline with Tween-80 94 % of control and 102 % of control | dose: 200.0 mg/kg/injection, schedule: Q04DX003 (ip), vehicle: saline with Tween-80 94 % of control and 96 % of control | [15] 87 % of control | dose: 400.0 mg/kg/injection, schedule: Q04DX003 (ip), vehicle: saline with Tween-80 94 % of control and 89 % of control

C1CNC(CN2CCCC2)C1 (centres undefined)
inactive: dose: 75.0 mg/kg/injection, schedule: Q01DX001 (ip), vehicle: saline 93 % of control | dose: 150.0 mg/kg/injection, schedule: Q01DX001 (ip), vehicle: saline 101 % of control | dose: 300.0 mg/kg/injection, schedule: Q01DX001 (ip), vehicle: saline 103 % of control

NC(N)=N/N=C/CO
inactive: dose: 7.5 mg/kg/injection, schedule: Q01DX Z (oral), vehicle: saline 106 % of control | dose: 15.0 mg/kg/injection, schedule: Q01DX Z (oral), vehicle: saline 100 % of control | dose: 30.0 mg/kg/injection, schedule: Q01DX Z (oral), vehicle: saline 107 % of control | dose: 60.0 mg/kg/injection, schedule: Q01DX Z (oral), vehicle: saline 101 % of control | dose: 120.0 mg/kg/injection, schedule: Q01DX Z (oral), vehicle: saline 102 % of control | dose: 240.0 mg/kg/injection, schedule: Q01DX Z (oral), vehicle: saline 110 % of control

Cc1cc2nc3[nH]c4ccccc4c3nc2cc1C
inactive: dose: 12.5 mg/kg/injection, schedule: Q01DX015 (ip), vehicle: saline 98 % of control | dose: 25.0 mg/kg/injection, schedule: Q01DX015 (ip), vehicle: saline 87 % of control | [19] 91 % of control | dose: 50.0 mg/kg/injection, schedule: Q01DX015 (ip), vehicle: saline 115 % of control | [20] 94 % of control | dose: 100.0 mg/kg/injection, schedule: Q01DX015 (ip), vehicle: saline 120 % of control | [21] 91 % of control | dose: 200.0 mg/kg/injection, schedule: Q01DX015 (ip), vehicle: saline 108 % of control and 90 % of control | [22] 97 % of control | dose: 400.0 mg/kg/injection, schedule: Q01DX015 (ip), vehicle: saline 104 % of control | dose: 800.0 mg/kg/injection, schedule: Q01DX001 (ip), vehicle: saline 103 % of control | dose: 800.0 mg/kg/injection, schedule: Q01DX015 (ip), vehicle: saline 87 % of control

CC1=C(N)C(=O)C(C)=C(N)C1=O
inactive: dose: 100.0 mg/kg/injection, schedule: Q01DX001 (ip), vehicle: other 98 % of control | dose: 200.0 mg/kg/injection, schedule: Q01DX001 (ip), vehicle: other 88 % of control | dose: 400.0 mg/kg/injection, schedule: Q01DX001 (ip), vehicle: other 97 % of control

NCC(O)C(O)C(O)C(O)CO (centres undefined)
inactive: [20] 103 % of control | [21] 95 % of control

O=C1OC(c2ccccc2)=NC1c1ccccc1 (centres undefined)
inactive: [11] 95 % of control | [6] 101 % of control | [16] 97 % of control | [8] 95 % of control | [17] 97 % of control | [10] 97 % of control

C[CH2][Sb]([CH2]C)([CH2]C)([O]C(C)=O)[O]C(C)=O
inactive: dose: 5.0 mg/kg/injection, schedule: Q04DX002 (ip), vehicle: saline with Tween-80 97 % of control | dose: 10.0 mg/kg/injection, schedule: Q04DX002 (ip), vehicle: saline with Tween-80 97 % of control | dose: 20.0 mg/kg/injection, schedule: Q04DX002 (ip), vehicle: saline with Tween-80 104 % of control

CC(=O)Oc1cc2c(cc1OC(C)=O)C(=O)CCC=C2
inactive: dose: 25.0 mg/kg/injection, schedule: Q04DX003 (ip), vehicle: Klucel (hydroxypropylcellulose) (HPC) 104 % of control | dose: 50.0 mg/kg/injection, schedule: Q04DX003 (ip), vehicle: Klucel (hydroxypropylcellulose) (HPC) 106 % of control | dose: 100.0 mg/kg/injection, schedule: Q01DX009 (ip), vehicle: saline sonified 95 % of control | [2] 98 % of control and 115 % of control | dose: 200.0 mg/kg/injection, schedule: Q01DX009 (ip), vehicle: saline sonified 97 % of control | [3] 102 % of control | dose: 400.0 mg/kg/injection, schedule: Q01DX009 (ip), vehicle: saline sonified 99 % of control | [4] 100 % of control
